Measured values published in article PMC9490236, “Accurate de novo design of membrane-traversing macrocycles” (Cell, 2022).
Where a SMILES comes first, the peptide text is derived from it. [ ]: non-standard residue; d: D form. dNMeF = CN[C@H](Cc1ccccc1)C(=O)O; NMeL = CN[C@@H](CC(C)C)C(=O)O; dNMeL = CN[C@H](CC(C)C)C(=O)O; NMeM = CN[C@@H](CCSC)C(=O)O; NMeV = CN[C@H](C(=O)O)C(C)C; NMeA = CN[C@@H](C)C(=O)O; dNMeA = CN[C@H](C)C(=O)O; Sar = CNCC(=O)O

Legend:
[1] = PAMPA
in vitro = settings: PAMPA, PAMPA_Papp_Avg

Compound | PAMPA_R1 [1] | PAMPA_R3 [1] | Papp (in vitro) [×10⁻⁶ cm/s]
CC(C)C[C@@H]1C(=O)N[C@@H](C)C(=O)N[C@H](CC(C)C)C(=O)N(C)[C@@H](C)C(=O)N2CCC[C@@H]2C(=O)N2CCC[C@@H]2C(=O)N2CCC[C@@H]2C(=O)N2CCC[C@H]2C(=O)N[C@H](C(C)C)C(=O)N(C)[C@@H](CC(C)C)C(=O)N1C [Design D10.28, DLEU *ALA DPRO DPRO DPRO PRO DVAL *LEU *DLEU ALA] (cyclo([dV][NMeL][dNMeL]A[dL][NMeA][dP][dP][dP]P)) | 1.56E-07 | 2.34E-07 | 0.184
CC[C@@H](C)[C@H]1NC(=O)[C@@H](CC(C)C)NC(=O)[C@@H]2CCCN2C(=O)[C@H]2CCCN2C(=O)[C@@H](C(C)C)NC(=O)[C@H](C)NC(=O)[C@@H]2CCCN2C(=O)[C@@H]([C@H](C)CC)NC(=O)[C@@H](C)N(C)C1=O [Design D9.23, DILE *DALA DILE PRO ALA DVAL DPRO PRO DLEU] (cyclo([dL][dI][dNMeA][dI]PA[dV][dP]P)) | 1.37E-07 | 1.50E-07 | 0.141
CC(C)[C@@H]1NC(=O)[C@@H]2CCCN2C(=O)[C@@H]2CCCN2C(=O)[C@@H](Cc2ccccc2)NC(=O)[C@@H]2CCCN2C(=O)[C@@H](Cc2ccccc2)NC1=O [Design D6.5, PRO PRO VAL DPHE PRO DPHE] (cyclo(PPV[dF]P[dF])) | 3.17e-06 cm/s | 3.12e-06 cm/s | 2.41
CC[C@H](C)[C@@H]1NC(=O)[C@H]2CCCN2C(=O)[C@@H]2CCCN2C(=O)[C@H](CC(C)C)NC(=O)[C@@H](C(C)C)NC(=O)[C@@H](CC(C)C)N(C)C(=O)[C@@H]2CCCN2C1=O [Design D7.1, PRO *DLEU DVAL LEU PRO DPRO ILE] (cyclo(IP[dNMeL][dV]LP[dP])) | 2.76e-06 cm/s | 3.53e-06 cm/s | 2.93
CC(C)C[C@@H]1NC(=O)[C@H](C)NC(=O)[C@@H]2CCCN2C(=O)[C@H]2CCCN2C(=O)[C@H](Cc2ccccc2)NC(=O)[C@H]2CCCN2C(=O)[C@@H](Cc2ccccc2)N(C)C(=O)[C@@H]2CCCN2C(=O)[C@@H](C)NC(=O)[C@H](CC(C)C)NC1=O [Design D10.49, DALA PRO *DPHE DPRO PHE DPRO PRO ALA LEU LEU] (cyclo(ALL[dA]P[dNMeF][dP]F[dP]P)) | 2.36E-07 | 1.35E-07 | 0.17
CC[C@H](C)[C@@H]1NC(=O)[C@H](CC(C)C)N(C)C(=O)[C@H]2CCCN2C(=O)[C@H]2CCCN2C(=O)[C@H](Cc2ccccc2)NC(=O)[C@@H](CC(C)C)NC(=O)[C@H]2CCCN2C(=O)[C@@H]2CCCN2C1=O [Design D8.27, PHE DPRO DPRO *LEU ILE PRO DPRO DLEU] (cyclo(F[dP][dP][NMeL]IP[dP][dL])) | 2.88E-07 | 2.76E-07 | 0.282
CC(C)[C@H]1C(=O)N[C@H](Cc2ccccc2)C(=O)N2CCC[C@H]2C(=O)N[C@H](Cc2ccccc2)C(=O)N2CCC[C@H]2C(=O)N2CCC[C@H]2C(=O)N1C [Design D6.6, PRO PRO *VAL DPHE PRO DPHE] (cyclo([NMeV][dF]P[dF]PP)) | 2.64e-06 cm/s | 6.73e-06 cm/s | 3.64
CC(C)C[C@@H]1C(=O)N(C)[C@@H](CC(C)C)C(=O)N2CCC[C@@H]2C(=O)N[C@H](CC(C)C)C(=O)N[C@H](C)C(=O)N2CCC[C@@H]2C(=O)N2CCC[C@H]2C(=O)N[C@@H](C)C(=O)N[C@H](Cc2ccccc2)C(=O)N[C@H](CC(C)C)C(=O)N[C@@H](C(C)C)C(=O)N1C (single isomer, unassigned) [Design D11.9.p1, VAL *DLEU *LEU DPRO DLEU DALA DPRO PRO ALA DPHE DLEU] | 1.04E-06 | 2.42E-07 | 0.641
CC(C)C[C@@H]1NC(=O)[C@@H](C)N(C)C(=O)[C@@H](CC(C)C)N(C)C(=O)[C@@H]2CCCN2C(=O)[C@H]2CCCN2C(=O)[C@@H](C)NC(=O)[C@@H]2CCCN2C(=O)[C@H]2CCCN2C(=O)[C@@H](CC(C)C)NC1=O [Design D9.27, DLEU DPRO PRO DALA DPRO PRO *DLEU *DALA LEU] (cyclo([dA][dP]P[dNMeL][dNMeA]L[dL][dP]P)) | 3.26E-08 | 3.49E-08 | 0.0334
CC[C@H](C)[C@@H]1NC(=O)[C@@H](CC(C)C)NC(=O)[C@@H]2CCCN2C(=O)[C@@H]2CCCN2C(=O)[C@@H](CC(C)C)NC(=O)[C@@H]2CCCN2C(=O)[C@H]2CCCN2C(=O)[C@@H](C(C)C)NC(=O)[C@@H](C)N(C)C1=O [Design D9.14, PRO DLEU ILE *DALA DVAL DPRO PRO DLEU PRO] (cyclo([dL]PP[dL]I[dNMeA][dV][dP]P)) | 6.02E-07 | 5.63E-07 | 0.584
CC(C)C[C@@H]1NC(=O)[C@@H](Cc2ccccc2)N(C)C(=O)[C@H](C(C)C)NC(=O)[C@H](C)NC(=O)[C@@H](C)NC(=O)[C@@H](Cc2ccccc2)N(C)C(=O)[C@@H]2CCCN2C(=O)[C@H](C(C)C)NC(=O)[C@@H]2CCCN2C(=O)[C@@H](C)NC1=O [Design D10.48, DALA PRO VAL PRO *DPHE DALA ALA VAL *DPHE LEU] (cyclo(AV[dNMeF]L[dA]PVP[dNMeF][dA])) | 3.54E-07 | 4.59E-07 | 0.405
CC(C)C[C@@H]1NC(=O)[C@@H]2CCCN2C(=O)[C@H]2CCCN2C(=O)[C@@H](C)N(C)C(=O)[C@@H](CC(C)C)N(C)C(=O)[C@H](C(C)C)NC(=O)[C@@H](C)N(C)C(=O)[C@H]2CCCN2C(=O)[C@@H]2CCCN2C1=O [Design D9.22, DPRO *DALA VAL *DLEU *DALA DPRO PRO LEU PRO] (cyclo(LP[dP][dNMeA]V[dNMeL][dNMeA][dP]P)) | 1.87E-07 | 1.82E-07 | 0.189
CC(C)C[C@@H]1NC(=O)[C@@H](CC(C)C)N(C)C(=O)[C@@H]2CCCN2C(=O)[C@H](CC(C)C)N(C)C(=O)[C@@H](C)NC(=O)[C@@H](CC(C)C)N(C)C(=O)[C@@H]2CCCN2C(=O)CN(C)C(=O)[C@H](CC(C)C)N(C)C(=O)[C@H](Cc2ccccc2)NC1=O [Design D10.57, *LEU *GLY PRO *DLEU DALA *LEU PRO *DLEU LEU PHE] (cyclo(F[NMeL][Sar]P[dNMeL][dA][NMeL]P[dNMeL]L)) | 2.94E-06 | 3.42E-06 | 3.05
CC[C@@H](C)[C@H]1NC(=O)[C@H](Cc2ccccc2)NC(=O)[C@@H](C)NC(=O)[C@@H](CC(C)C)N(C)C(=O)[C@@H]2CCCN2C(=O)[C@H](C)NC(=O)[C@H]2CCCN2C(=O)[C@@H]2CCCN2C(=O)[C@@H](Cc2ccccc2)NC1=O [Design D9.41, PRO DPRO ALA PRO *DLEU DALA PHE DILE DPHE] (cyclo(AP[dNMeL][dA]F[dI][dF]P[dP])) | 3.56E-06 | 3.41E-06 | 3.48
CC[C@H](C)[C@@H]1NC(=O)[C@@H](C)NC(=O)[C@@H]2CCCN2C(=O)[C@H]2CCCN2C(=O)[C@@H]2CCCN2C(=O)[C@@H](C)NC(=O)[C@@H](Cc2ccccc2)NC(=O)[C@@H](CC(C)C)N(C)C(=O)[C@@H](CC(C)C)N(C)C1=O [Design D9.15, PRO DPRO PRO DALA ILE *DLEU *DLEU DPHE DALA] (cyclo([dA]I[dNMeL][dNMeL][dF][dA]P[dP]P)) | 9.95E-07 | 6.20E-07 | 0.85
CSCC[C@H]1C(=O)N(C)[C@H](C)C(=O)N[C@H](CC(C)C)C(=O)N2CCC[C@@H]2C(=O)N2CCC[C@H]2C(=O)N[C@@H](CC(C)C)C(=O)N2CCC[C@H]2C(=O)N2CCC[C@@H]2C(=O)N[C@H](C(C)C)C(=O)N1C [Design D9.24, DPRO DVAL *MET *DALA DLEU DPRO PRO LEU PRO] (cyclo(LP[dP][dV][NMeM][dNMeA][dL][dP]P)) | 7.85E-08 | 8.51E-08 | 0.0869
CC(C)C[C@H]1NC(=O)[C@@H]2CCCN2C(=O)[C@@H]2CCCN2C(=O)[C@@H](C)NC(=O)[C@@H](Cc2ccccc2)N(C)C(=O)[C@H]2CCCN2C1=O [Design D6.4, DPRO *DPHE DALA PRO PRO DLEU] (cyclo(PP[dL][dP][dNMeF][dA])) | 1.85e-05 cm/s | 1.58e-05 cm/s | 13.9
CC(C)C[C@H]1NC(=O)[C@@H](C(C)C)NC(=O)[C@H](CC(C)C)N(C)C(=O)[C@@H](Cc2ccccc2)NC(=O)[C@H](CC(C)C)N(C)C(=O)[C@H]2CCCN2C(=O)[C@@H]2CCCN2C(=O)[C@H]2CCCN2C(=O)[C@@H](C(C)C)NC(=O)[C@H]2CCCN2C1=O [Design D10.42, DVAL DLEU DPRO DVAL DPRO PRO DPRO *LEU DPHE *LEU] (cyclo([dP][NMeL][dF][NMeL][dV][dL][dP][dV][dP]P)) | 7.55E-07 | 8.78E-07 | 0.71
CC[C@H](C)[C@@H]1NC(=O)[C@@H](Cc2ccccc2)NC(=O)[C@@H](C)NC(=O)[C@@H](C(C)C)NC(=O)[C@H](CCSC)NC(=O)[C@@H]2CCCN2C(=O)[C@H]2CCCN2C(=O)[C@@H]2CCCN2C(=O)[C@@H](C)N(C)C(=O)[C@@H](CC(C)C)N(C)C1=O [Design D10.45, DVAL DALA DPHE ILE *DLEU *DALA PRO DPRO PRO MET] (cyclo(M[dV][dA][dF]I[dNMeL][dNMeA]P[dP]P)) | 5.38E-07 | 3.72E-07 | 0.487
CC[C@H](C)[C@@H]1NC(=O)[C@@H](C)N(C)C(=O)[C@@H](C)N(C)C(=O)[C@@H]2CCCN2C(=O)[C@H](CC(C)C)NC(=O)[C@H](CC(C)C)NC(=O)[C@@H](CC(C)C)NC(=O)[C@@H]2CCCN2C(=O)[C@H]2CCCN2C1=O [Design D9.11, PRO DLEU LEU LEU PRO *DALA *DALA ILE DPRO] (cyclo([dL]LLP[dNMeA][dNMeA]I[dP]P)) | 2.61E-07 | 2.10E-07 | 0.223
CC[C@H](C)[C@@H]1NC(=O)[C@@H](C)N(C)C(=O)[C@H]2CCCN2C(=O)[C@H]2CCCN2C(=O)[C@H](Cc2ccccc2)NC(=O)[C@@H](CC(C)C)NC(=O)[C@@H](CC(C)C)N(C)C(=O)[C@@H]2CCCN2C1=O [Design D8.17, PRO *DLEU DLEU PHE DPRO DPRO *DALA ILE] (cyclo(F[dP][dP][dNMeA]IP[dNMeL][dL])) | 5.94E-07 | 8.83E-07 | 0.72
